Measurements: US20230136600A1, “Method and device for screening antigen epitope polypeptide” (priority 2020, published 2023)

Test system: Balb/c mice
Assay: Polypeptide chip-based vaccine immunogenicity scoring system
Type: in vivo
Design: key to A2: whether the 95 percentile of the last sampling is increased compared with the end point: Y = rise; N = no rise
Details: for Total single peptide: A*3 + B*2 + C*1; for A: 95 percentile grouping number score / B: Mouse performance score: total score = 5; for C1: #A timing-sequence response peptide fragment set / C2: #B vaccine specificity peptide fragment set / C3: Intersection of A and B / C4: Percentage of the intersection in set B / C: Timing-sequence response and specificity score: value of the whole mix
Protocol: Data distribution and characteristics thereof are analyzed based on a) and b), a polypeptide chip-based vaccine immunogenicity scoring system (referring to Table 7) is designed.
10 combinations are evaluated by the polypeptide chip-based vaccine immunogenicity scoring system. An evaluation method is consistent with that in Embodiment II. Evaluation results are show in the table below.
This embodiment is consistent with Embodiment II. Each combination is evaluated by the polypeptide chip-based vaccine immunogenicity scoring system. Evaluation results are show in the table below.

[1] = Embodiment III, polypeptide-KLH
[2] = Embodiment III, polypeptide-KLH, Mix1-10
[3] = Embodiment II, mice immunized with Combination 2

Sequence | B1: D 0-D 14 95 percentile rise in the number of mice [1] | B2: D 0-D 21 95 percentile rise in the number of mice [1] | B3: D 14-D 21 95 percentile rise in the number of mice [1] | B4: D 21-D 28 95 percentile rise in the number of mice [1] | A1: difference between a highest median and a D 0 median (95 percentile) [2] | A2: whether the 95 percentile of the last sampling is increased compared with the end point [2] | Total single peptide [1] | A: 95 percentile grouping number score [1] | B: Mouse performance score [1] | C1: #A timing-sequence response peptide fragment set [1] | C2: #B vaccine specificity peptide fragment set [1] | C3: Intersection of A and B [1] | C4: Percentage of the intersection in set B [1] | C: Timing-sequence response and specificity score [1] | further results
IRGGDGKMKD (SARS-CoV-2) [SEQ ID NO:40] | 3 | 3 | 2 | 0 | 0.11 | N | 18.3 | 4.5 | 1.9 | 823 | 398 | 7 | 1.759 | 1 | 
ECVLGQSKR (SARS-CoV-2) [SEQ ID NO:10] | 3 | 3 | 1 | 0 | 0.11 | N | 17.9 | 4.5 | 1.7 | 1494 | 190 | 2 | 1.053 | 1 | 
NVAKSEFDRDAA [SEQ ID NO:26] | 3 | 3 | 1 | 0 | 0.06 | N | 6.9 | 1 | 1.7 | 352 | 541 | 1 | 0.185 | 0.5 | 
KRISNCVADY [SEQ ID NO:8] | 2 | 3 | 2 | 1 | 0.03 | N | 7.1 | 1 | 1.8 | 230 | 251 | 1 | 0.398 | 0.5 | 
YEGNSPFH [SEQ ID NO:18] | 3 | 2 | 0 | 2 | 0.06 | Y | 9.9 | 2 | 1.7 | 1212 | 389 | 1 | 0.257 | 0.5 | 
ETSNSFDVLKSE [SEQ ID NO:30] | 2 | 2 | 2 | 1 | 0.02 | N | 6.7 | 1 | 1.6 | 230 | 251 | 1 | 0.398 | 0.5 | 
ERSEKSYEL (SARS-CoV-2) [SEQ ID NO:28] | 1 | 2 | 0 | 1 | 0.11 | N | 14.3 | 4 | 0.9 | 1212 | 389 | 1 | 0.257 | 0.5 | 
KKPASRELKVTF [SEQ ID NO:24] | 3 | 3 | 1 | 2 | 0.10 | Y | 18.2 | 4.5 | 2.1 | 145 | 529 | 1 | 0.189 | 0.5 | 
MADSNGTIT (SARS-CoV-2) [SEQ ID NO:16] | 3 | 3 | 1 | 2 | 0.08 | Y | 15.2 | 3.5 | 2.1 | 511 | 364 | 1 | 0.275 | 0.5 | A2: whether the 95 percentile of the last sampling is increased compared with the end point (Embodiment II, Combination 2): Y; B1: D 0-D 14 95 percentile rise in the number of mice (Embodiment II, Combination 2): 5; B2: D 0-D 21 95 percentile rise in the number of mice (Embodiment II, Combination 2): 1; B3: D 14-D 21 95 percentile rise in the number of mice (Embodiment II, Combination 2): 0; B4: D 21-D 28 95 percentile rise in the number of mice (Embodiment II, Combination 2): 2; Total single peptide (Embodiment II, Combination 2): 19.9; A: 95 percentile grouping number score (Embodiment II, Combination 2): 5; B: Mouse performance score (Embodiment II, Combination 2): 2.2; A1: difference between a highest median and a D 0 median (95 percentile) [3]: 0.2
GVYYPDKVFR (SARS-CoV-2) [SEQ ID NO:7] | 3 | 3 | 0 | 0 | 0.09 | N | 14 | 3.5 | 1.5 | 145 | 529 | 1 | 0.189 | 0.5 | A2: whether the 95 percentile of the last sampling is increased compared with the end point (Embodiment II, Combination 2): N; B1: D 0-D 14 95 percentile rise in the number of mice (Embodiment II, Combination 2): 5; B2: D 0-D 21 95 percentile rise in the number of mice (Embodiment II, Combination 2): 0; B3: D 14-D 21 95 percentile rise in the number of mice (Embodiment II, Combination 2): 0; B4: D 21-D 28 95 percentile rise in the number of mice (Embodiment II, Combination 2): 1; Total single peptide (Embodiment II, Combination 2): 18.9; A: 95 percentile grouping number score (Embodiment II, Combination 2): 5; B: Mouse performance score (Embodiment II, Combination 2): 1.7; A1: difference between a highest median and a D 0 median (95 percentile) [3]: 0.4
GRLQSLQTY (SARS-CoV-2) [SEQ ID NO:5] | 3 | 2 | 0 | 2 | 0.11 | Y | 18.9 | 5 | 1.7 | 133 | 431 | 1 | 0.232 | 0.5 | 
NSVAYSNNS (SARS-CoV-2) [SEQ ID NO:9] | 3 | 3 | 1 | 1 | 0.07 | N | 10.3 | 2 | 1.9 | 145 | 529 | 1 | 0.189 | 0.5 | 
PLQPELDSFKEE [SEQ ID NO:37] | 3 | 2 | 1 | 1 | 0.09 | Y | 15.9 | 4 | 1.7 | 230 | 251 | 1 | 0.398 | 0.5 | 
